{"source": "PubChem BioAssay AID652060", "about": "(Broad Institute, 2013)", "note": "The source made the active and inactive calls. No rule for the calls is given here.", "data": [{"system": "not listed separately", "experiment": "nonspecific luciferase activators in D54 LucT cells, dose response, counter-screen for N-linked glycosylation inhibitor project, cell-based, luminescence, dry powder (AID 652060)", "conditions": "D54 LucT luciferase counterscreen, luminescence, 24 h; at 19.5 µM (top of the series)", "values": [{"molecule": "Cc1cccc(C)c1OCCNC(=O)C(=O)NCc1ccco1", "luciferase activity increase": "33.3% (inactive)"}, {"molecule": "CCCCOc1ccccc1C1CC(=O)NC2=C1C(=O)CCC2", "note": "(stereo unspecified)", "luciferase activity increase": "0% (inactive)"}, {"molecule": "CCN(CC)CCC(=O)Nc1cccc2c1C(=O)c1ccccc1C2=O", "luciferase activity increase": "-33.3% (inactive)"}, {"molecule": "O=C(Cc1ccccc1)c1nnc(-c2ccccc2)o1", "luciferase activity increase": "33.3% (inactive)"}, {"molecule": "Cc1[nH][nH]c(=O)c1C(c1ccc(-c2ccc(Cl)c(Cl)c2)o1)c1c(C)[nH][nH]c1=O", "luciferase activity increase": "0% (inactive)"}, {"molecule": "CCC1=Nc2cc(C(=O)NCCCOC)ccc2Sc2ccccc21", "luciferase activity increase": "-33.3% (inactive)"}, {"molecule": "COc1cc(C(=O)NCCOc2cc(C)cc(C)c2)cc(OC)c1OC", "luciferase activity increase": "33.3% (inactive)"}, {"molecule": "O=C1CCN(Cc2ccccc2)c2cc3ccccc3cc21", "luciferase activity increase": "0% (inactive)"}, {"molecule": "COc1ccccc1OCC(=O)NNC(=O)c1ccoc1C", "luciferase activity increase": "33.3% (inactive)"}, {"molecule": "CCOc1ccc(NC(=O)c2cc(OC)nc3ccccc23)cc1", "luciferase activity increase": "0% (inactive)"}, {"molecule": "Cc1ccc(CCC(=O)Nc2ncc(Cc3cc(Cl)ccc3Cl)s2)o1", "luciferase activity increase": "-33.3% (inactive)"}, {"molecule": "CCOC(=O)COc1cccc2c(=O)n(CC(=O)NCc3ccccc3)ccc12", "luciferase activity increase": "0% (inactive)"}, {"molecule": "COc1ccc(CSc2nnc(-c3ccccc3)o2)cc1", "luciferase activity increase": "50% (inactive)"}, {"molecule": "Cc1cnc(NC(=O)c2cc(S(=O)(=O)N(C)C)ccc2N2CCCC2)s1", "luciferase activity increase": "0% (inactive)"}, {"molecule": "COc1cccc(N2CCN(C(=O)c3ccc(CS(=O)c4ccc(C)cc4)o3)CC2)c1", "note": "(stereo unspecified)", "luciferase activity increase": "0% (inactive)"}, {"molecule": "Brc1ccc(CSc2nnc(-c3ccccc3)o2)cc1", "luciferase activity increase": "0% (inactive)"}, {"molecule": "CCN(CC)CCOc1ccc2c(c1)C(=NNC(=O)c1ccccn1)c1cc(OCCN(CC)CC)ccc1-2", "luciferase activity increase": "-33.3% (inactive)"}, {"molecule": "CCCOC(=O)c1[nH]c2c(c1C)C(=O)CC(c1cccs1)C2", "note": "(stereo unspecified)", "luciferase activity increase": "50% (inactive)"}, {"molecule": "Cc1ccc(C(=O)c2cc([N+](=O)[O-])ccc2N2CCOCC2)cc1C", "luciferase activity increase": "66.7% (inactive)"}, {"molecule": "CCN(CC)CCCNc1nc2cc(OC)c(OC)cc2c2nc(-c3ccccc3)nn12", "luciferase activity increase": "-33.3% (inactive)"}, {"molecule": "COc1ccc(NC(=O)C(=O)c2cn(CC(=O)N3CCCC3)c3ccccc23)cc1", "luciferase activity increase": "-33.3% (inactive)"}, {"molecule": "CC(=O)c1ccc(Oc2cc(C)nc(-n3nc(C)cc3C)n2)cc1", "luciferase activity increase": "0% (inactive)"}, {"molecule": "COc1cc(Nc2c3c(nc4ccccc24)CCCC3)cc(OC)c1OC", "luciferase activity increase": "0% (inactive)"}, {"molecule": "CC(=O)N[C@H]1[C@@H](O[C@@H]2OC(C[C@@H](O)C3O[C@@H](n4ccc(=O)[nH]c4=O)[C@H](O)[C@@H]3O)[C@H](O)[C@H](O)[C@H]2NC(=O)/C=C/CCCCCCCCCCC(C)C)O[C@H](CO)[C@@H](O)[C@@H]1O", "note": "(stereo partly specified)", "luciferase activity increase": "-50% (inactive)"}, {"molecule": "Cc1ccc(Oc2ccc(S(=O)(=O)N3CCOCC3)cc2C(N)=O)c(-n2nc3ccccc3n2)c1", "luciferase activity increase": "33.3% (inactive)"}, {"molecule": "Cc1cc(NC(=O)CSc2nc(-c3ccco3)cc(C(F)(F)F)n2)no1", "luciferase activity increase": "0% (inactive)"}, {"molecule": "CCOc1ccc(S(=O)(=O)NCc2ccccn2)cc1NC(=O)c1ccccc1F", "luciferase activity increase": "0% (inactive)"}, {"molecule": "COc1ccc2c(COC(=O)c3cccc(S(=O)(=O)NCC(C)C)c3)cc(=O)oc2c1", "luciferase activity increase": "66.7% (inactive)"}, {"molecule": "CC(=O)N1CCC(=O)c2cc3ccccc3cc21", "luciferase activity increase": "33.3% (inactive)"}, {"molecule": "Cc1cc(C)cc(C(=O)N2CC(=O)Nc3ccccc32)c1", "luciferase activity increase": "33.3% (inactive)"}, {"molecule": "O=C1CCNc2cc3ccccc3cc21", "luciferase activity increase": "-66.7% (inactive)"}, {"molecule": "C/C(=N\\NC(=O)c1c([N+](=O)[O-])c(C)nn1C)c1ccc(NC(=O)C2CCCC2)cc1", "luciferase activity increase": "0% (inactive)"}, {"molecule": "CC(=O)c1cccc(NC(=O)CSc2ncc(C(=O)Nc3ccccc3)c(=O)n2C)c1", "luciferase activity increase": "33.3% (inactive)"}, {"molecule": "CCn1c2ccccc2c2cc(NC(=O)c3cc(OC)c(OC)c(OC)c3)ccc21", "luciferase activity increase": "-33.3% (inactive)"}, {"molecule": "Cc1cc(C)nc(/N=C(\\N)Nc2ccc(OCc3ccccc3)cc2)n1", "luciferase activity increase": "-33.3% (inactive)"}, {"molecule": "Cc1cc(=O)[nH]c(N/N=C/c2cc(C)n(CC(F)(F)F)c2C)n1", "luciferase activity increase": "0% (inactive)"}]}, {"system": "D54 LucT luciferase counterscreen, luminescence, 24 h", "experiment": "nonspecific luciferase activators in D54 LucT cells, dose response, counter-screen for N-linked glycosylation inhibitor project, cell-based, luminescence, dry powder (AID 652060)", "conditions": "not given", "units": {"AC40": "nM"}, "values": [{"molecule": "COc1ccccc1CSc1nnc(-c2ccccc2)o1", "AC40": 845}, {"molecule": "COc1ccccc1-c1nnc(SCc2ccccc2)o1", "AC40": 632}, {"molecule": "CCOC(=O)c1ccc(Oc2cc(C)nc(SC)n2)cc1", "AC40": 3390}, {"molecule": "CCCNS(=O)(=O)c1cccc(C(=O)OCc2cc(=O)oc3cc(OC)ccc23)c1", "AC40": 2140}, {"molecule": "Nc1nc(=S)c2ncn([C@@H]3O[C@H](CO)[C@@H](O)[C@H]3O)c2[nH]1", "AC40": 5190}, {"molecule": "O=C(N/N=C/c1ccc(Cl)cc1)c1sccc1OCc1ccc(F)cc1", "AC40": 1600}, {"molecule": "COc1cc(-c2nnc(SCC3(c4ccc(Br)cc4)OCCO3)o2)cc(OC)c1OC", "AC40": 930}, {"molecule": "COc1ccc(-c2nnc(SCc3ccccc3)o2)cc1", "AC40": 5120}, {"molecule": "COC(=O)c1cn(C(=O)c2ccc(OC)cc2)c2ccccc12", "AC40": 15400}, {"molecule": "Cc1ccc(/C=N/NC(=O)C2COc3ccccc3O2)s1", "note": "(stereo unspecified)", "AC40": 15300}]}]}
